Measured values from US20030113815A1, “Canine peroxisome proliferator activated receptor gamma” (Pfizer Inc., priority 2001, published 2003).

Tested on: TNF-α expression in canine DH82 cells
Test: Effect of PPARγ agonist on TNF-α mRNA levels (Q-PCR) in canine DH82 cells
Format: cell-based
Conditions: two hours, normalized to GAPDH
Experimental: Canine DH82 cells (ATCC No. CRL-10389) were cultured in RPMI 1640 medium containing 2 mM L-glutamine, 25 mM Hepes, 10% fetal bovine serum (FBS) and 1× antimycotic at 37° C., 95% humidity, and 5% CO2. Cells were treated with 10 nM PMA (Sigma-Aldrich, St. Louis, Mo.), PMA (10 nM) plus darglitazone (10 uM), and darglitazone (10 μM), respectively for two hours. After treatment, cell RNA lysis buffer was added to the cells. Samples were loaded into MagNa Pure™ machine (F. Hoffmann-La Roche, Basel, Switzerland). MagNa Pure LC™ RNA isolation Kit II (F. Hoffmann-La Roche) was used for isolation of total RNA from culture cells. First strand cDNA synthesis kit for RT-PCR (F. Hoffmann-La Roche) was used to synthesize cDNA. Samples were incubated at 25° C. for 10 minutes and then at 42° C. for 60 minutes, denatured at 90° C. for 5 minutes and cooled to 4° C. for 1-2 hr or at −20° C. for longer periods. Quantification PCR (Q-PCR) was performed using the Lightcycler Faster DNA Master SYBR Green 1™ kit (F. Hoffmann-La Roche) using canine TNF-α primers (forward primer: 5′ […], reverse primer: 5′ […]). […] For quantification, melting points were measured every 0.2° C. from 60° C. to 99° C. using fluorescence detection. […]

Cc1oc(-c2ccccc2)nc1CCC(=O)c1ccc(CC2SC(=O)NC2=O)cc1 (centres unmarked) [darglitazone]
reduction of TNF-α expression in PMA stimulated cells (PMA 10 nM plus darglitazone 10 uM, FIG. 2B): about 15%
reduction of TNF-α expression from the basal level (unstimulated, darglitazone 10 μM, control basal level = 100%, FIG. 2A): about 40%
